We go through 33 compounds from ChEMBL document CHEMBL5247653, “Discovery of Clinical Candidate ACT-777991, a Potent CXCR3 Antagonist for Antigen-Driven and Inflammatory Pathologies” (J Med Chem, 2023).

Data set [1] addresses Voltage-gated inwardly rectifying potassium channel KCNH2 (Homo sapiens, UniProt Q12809). Put plainly: Inhibition of human ERG stably expressed in CHO cells at -80 mV holding voltage by automated QPatch electrophysiological assay. Type of data set: toxicity, cell-based. On the technique in general: Patch clamp records ionic current or voltage across a cell membrane.
Data set [2] is described as follows: Metabolic stability in human liver microsomes assessed as intrinsic clearance at 1 uM and measured upto 15 mins in presence of NADPH regenerating system by LC-MS/MS analysis. Type of data set: ADME, Microsome. The note with it: read-out: CLH. For orientation: Liver microsomes are vesicles of endoplasmic reticulum, rich in cytochrome P450 enzymes.
Data set [3] concerns the target T1, C-X-C chemokine receptor type 3 (Homo sapiens, UniProt P49682).
T1 sequence (P49682 whole entry): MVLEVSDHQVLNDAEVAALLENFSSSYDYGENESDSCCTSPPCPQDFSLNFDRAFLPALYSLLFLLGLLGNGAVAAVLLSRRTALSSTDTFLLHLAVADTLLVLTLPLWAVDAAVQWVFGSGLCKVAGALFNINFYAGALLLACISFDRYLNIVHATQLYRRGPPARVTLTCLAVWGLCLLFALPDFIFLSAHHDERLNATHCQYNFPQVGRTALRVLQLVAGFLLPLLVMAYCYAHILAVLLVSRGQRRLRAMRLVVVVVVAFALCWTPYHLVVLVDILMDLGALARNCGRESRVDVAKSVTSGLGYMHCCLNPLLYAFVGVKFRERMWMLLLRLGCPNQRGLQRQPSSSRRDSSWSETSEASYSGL
Put plainly: Antagonist activity at CXCR3 (unknown origin) in human T cells in venous blood assessed as receptor internalization incubated for 30 mins in presence of CXCL10 by flow cytometric analysis. Type of data set: cell-based, T cell. On the technique in general: Flow cytometry measures light scatter and fluorescence of single cells or particles in a stream.

Data set [4] can be described thus: Clearance in Wistar rat at 2 mg/kg,po. It counts as ADME, organism-based. The note with it: in vivo.
The nature of data set [5]: Oral bioavailability in Beagle dog at 2 mg/kg. It counts as ADME, organism-based, Canis lupus familiaris. The note with it: in vivo.
A short description of data set [6]: Oral bioavailability in Wistar rat at 2 mg/kg. Type of data set: ADME, organism-based. Particulars: in vivo.
Data set [7] addresses CYP3A4 (Homo sapiens, UniProt P08684). Put plainly: […] recombinant human CYP3A4 mediated drug metabolism in human liver microsomes assessed as intrinsic clearance at 1 uM incubated for 45 mins in presence of NADPH regenerating system by LC-MS/MS analysis. It counts as ADME, Microsome. Particulars: read-out: CLH.
Data set [8] has as its target CYP2D6 (Homo sapiens, UniProt P10635). Kind of data set: […] recombinant human CYP2D6 mediated drug metabolism in human liver microsomes assessed as intrinsic clearance at 1 uM incubated for 45 mins in presence of NADPH regenerating system by LC-MS/MS analysis. It counts as ADME, Microsome. Particulars: recombinant human CYP2D6, read-out: CLH.
Data set [9] is described as follows: Lipophilicity, log D of compound. Type of data set: physicochemical. Particulars: octanol/water.

Sequence of CYP3A4 (P08684 whole entry): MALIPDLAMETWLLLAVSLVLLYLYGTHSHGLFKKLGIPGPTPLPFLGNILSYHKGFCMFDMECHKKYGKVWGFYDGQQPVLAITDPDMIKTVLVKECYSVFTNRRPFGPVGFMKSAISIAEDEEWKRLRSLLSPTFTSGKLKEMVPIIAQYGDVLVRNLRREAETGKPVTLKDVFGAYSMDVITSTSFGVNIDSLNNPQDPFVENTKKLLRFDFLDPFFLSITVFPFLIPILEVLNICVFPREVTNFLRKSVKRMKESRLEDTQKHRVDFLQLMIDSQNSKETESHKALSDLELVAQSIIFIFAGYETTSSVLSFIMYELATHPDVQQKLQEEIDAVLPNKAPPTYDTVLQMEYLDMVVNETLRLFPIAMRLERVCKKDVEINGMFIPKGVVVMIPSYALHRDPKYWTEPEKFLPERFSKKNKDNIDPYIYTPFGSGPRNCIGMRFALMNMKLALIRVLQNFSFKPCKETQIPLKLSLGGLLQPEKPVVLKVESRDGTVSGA
Sequence of CYP2D6 (P10635 whole entry): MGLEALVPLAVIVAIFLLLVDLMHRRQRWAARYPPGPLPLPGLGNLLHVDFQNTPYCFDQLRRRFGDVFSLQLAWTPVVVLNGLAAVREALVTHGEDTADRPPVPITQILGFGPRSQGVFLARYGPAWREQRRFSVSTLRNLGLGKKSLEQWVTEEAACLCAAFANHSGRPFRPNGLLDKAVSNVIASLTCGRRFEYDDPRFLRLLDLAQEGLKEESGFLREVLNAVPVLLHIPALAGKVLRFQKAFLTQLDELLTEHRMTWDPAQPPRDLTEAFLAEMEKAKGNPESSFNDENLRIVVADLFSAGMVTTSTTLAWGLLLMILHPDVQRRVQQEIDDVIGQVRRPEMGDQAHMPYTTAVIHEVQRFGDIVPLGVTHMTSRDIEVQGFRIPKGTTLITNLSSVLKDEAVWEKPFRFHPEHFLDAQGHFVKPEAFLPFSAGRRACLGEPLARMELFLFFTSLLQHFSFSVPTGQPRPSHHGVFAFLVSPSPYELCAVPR
Sequence of Voltage-gated inwardly rectifying potassium channel KCNH2 (Q12809 whole entry): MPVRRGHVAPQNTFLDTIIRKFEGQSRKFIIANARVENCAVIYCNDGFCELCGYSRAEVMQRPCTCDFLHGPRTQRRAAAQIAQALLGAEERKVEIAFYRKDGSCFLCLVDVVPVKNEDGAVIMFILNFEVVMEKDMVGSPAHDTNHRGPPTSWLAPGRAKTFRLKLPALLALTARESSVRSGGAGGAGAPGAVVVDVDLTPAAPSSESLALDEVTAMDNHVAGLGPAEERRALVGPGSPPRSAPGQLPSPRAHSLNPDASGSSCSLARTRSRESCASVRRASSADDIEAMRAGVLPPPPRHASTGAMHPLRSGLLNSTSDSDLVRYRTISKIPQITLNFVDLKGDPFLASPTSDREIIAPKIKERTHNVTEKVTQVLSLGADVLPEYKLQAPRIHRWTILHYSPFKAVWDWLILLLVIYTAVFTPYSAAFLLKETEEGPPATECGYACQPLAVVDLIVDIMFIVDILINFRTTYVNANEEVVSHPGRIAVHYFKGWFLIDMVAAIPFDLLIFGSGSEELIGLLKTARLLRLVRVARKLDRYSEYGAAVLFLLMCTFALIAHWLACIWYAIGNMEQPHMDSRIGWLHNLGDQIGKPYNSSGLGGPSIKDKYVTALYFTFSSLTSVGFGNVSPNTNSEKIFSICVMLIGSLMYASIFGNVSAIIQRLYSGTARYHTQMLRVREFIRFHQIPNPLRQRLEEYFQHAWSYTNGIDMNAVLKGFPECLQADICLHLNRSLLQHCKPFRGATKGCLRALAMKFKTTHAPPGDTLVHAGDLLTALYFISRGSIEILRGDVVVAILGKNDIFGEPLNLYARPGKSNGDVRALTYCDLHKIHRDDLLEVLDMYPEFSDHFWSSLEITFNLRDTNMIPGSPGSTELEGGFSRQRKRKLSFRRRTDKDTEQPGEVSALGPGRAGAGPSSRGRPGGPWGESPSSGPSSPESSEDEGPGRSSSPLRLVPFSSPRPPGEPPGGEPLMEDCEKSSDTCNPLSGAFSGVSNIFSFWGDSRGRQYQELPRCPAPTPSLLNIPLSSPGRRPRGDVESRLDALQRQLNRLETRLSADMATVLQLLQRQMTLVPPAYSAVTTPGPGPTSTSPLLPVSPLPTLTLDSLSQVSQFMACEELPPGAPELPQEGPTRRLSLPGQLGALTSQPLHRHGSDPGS

Consider `O=C(Cn1cnc(C2CC2)n1)N1CCN(c2sc(C(F)(F)F)nc2-c2cnc(C(F)(F)F)nc2)C[C@H]1CCO`, for which the IC50 in [1] came out at 7.3 µM; in data set [3], 0.0591 µM. For the same compound, in data set [2], the microsomal CLint at 1 µM is 12 µL/min/mg.
In the case of `CC(C)c1ncn(CC(=O)N2CCN(c3sc(C(F)(F)F)nc3-c3cnc(C(F)(F)F)nc3)C[C@H]2CCO)n1`, the IC50 in [1] came out at 5.8 µM; in data set [3] it was 0.063 µM. Moreover, the microsomal CLint at 1 µM in data set [2] amounted to 22 µL/min/mg.
Consider `Cc1ncn(CC(=O)N2CCN(c3sc(C(F)(F)F)nc3-c3cnc(C(F)(F)F)nc3)C[C@@H]2CO)n1`, for which the half-inhibitory concentration (IC50) in [1] was greater than 60 µM; in [3] it was 0.273 µM.
As to `CCc1ncn(CC(=O)N2CCN(c3sc(C(F)(F)F)nc3-c3cnc(C(F)(F)F)nc3)C[C@@H]2CCO)n1`, the IC50 in [1] stood at 27 µM; in data set [3], 0.265 µM. For the same compound, in data set [2], the microsomal CLint at 1 µM stood at 17 µL/min/mg.
As to `COCc1ncn(CC(=O)N2CCN(c3sc(C(F)(F)F)nc3-c3cnc(C(F)(F)F)nc3)C[C@H]2C)n1`, the half-maximal inhibitory concentration (IC50) came to 18 µM in [1] and 0.44 µM in data set [3].
For `Cc1ccn(CC(=O)N2CCN(c3sc(C(F)(F)F)nc3-c3cnc(C(F)(F)F)nc3)C[C@H]2CCO)n1`, the IC50 in [1] is 5 µM; in data set [3], 0.0302 µM. Also, the microsomal CLint at 1 µM in data set [2] was found to be 19 µL/min/mg.
Consider `C[C@@H]1CN(c2sc(C(F)(F)F)nc2-c2cnc(C(F)(F)F)nc2)CCN1C(=O)Cn1cnc(C(F)(F)F)n1`, for which the IC50 in data set [1] came to 3.9 µM; in [3] it was 0.191 µM.
Compound `CC(C)c1ncn(CC(=O)N2CCN(c3sc(C(F)(F)F)nc3-c3cnc(C(F)(F)F)nc3)C[C@H]2C)n1` showed a CL/F in data set [4] of 6.5 mL/min/kg. In addition, the IC50 was 7 µM in data set [1] and 0.128 µM in data set [3]. The bioavailability is no less than 100% in [5] and greater than 100% in [6].
As to `Cc1ncn(CC(=O)N2CCN(c3sc(C(F)(F)F)nc3-c3cnc(C(F)(F)F)nc3)C[C@H]2CO)n1`, the IC50 was greater than 60 µM in [1] and 0.167 µM in data set [3]. Moreover, the microsomal CLint at 1 µM in data set [2] was less than 10 µL/min/mg.
Consider `CC(C)c1ncn(CC(=O)N2CCN(c3sc(C(F)(F)F)nc3-c3cnc(C(F)(F)F)nc3)C[C@H]2CO)n1`, for which the microsomal CLint at 1 µM in [7] was determined as 1.2 µL/min/mg; in data set [2] it was 33 µL/min/mg; in data set [8] it was 0.13 µL/min/mg. In addition, the figures for the IC50 in data set [1] and in data set [3] were 29 µM and 0.225 µM, respectively.
Compound `CCc1nncn1CC(=O)N1CCN(c2sc(C(F)(F)F)nc2-c2cnc(C(F)(F)F)nc2)C[C@H]1C` showed a logD in data set [9] of 2.3. In addition, the figures for the half-inhibitory concentration (IC50) in [1] and in data set [3] were greater than 60 µM and 1.19 µM, respectively.
The matching figures for `CCc1ncnn1CC(=O)N1CCN(c2sc(C(F)(F)F)nc2-c2cnc(C(F)(F)F)nc2)C[C@H]1C`: 2.8, 13 µM and 1.19 µM.
For `O=C(Cn1cnc(C2CC2)n1)N1CCN(c2sc(C(F)(F)F)nc2-c2cnc(C(F)(F)F)nc2)C[C@H]1CO`, the IC50 turned out to be 31 µM in data set [1] and 0.14 µM in data set [3]. In addition, the microsomal CLint at 1 µM in data set [2] is less than 10 µL/min/mg.
Regarding `CCc1ncn(CC(=O)N2CCN(c3sc(C(F)(F)F)nc3-c3cnc(C(F)(F)F)nc3)C[C@H]2C)n1`, the results for the IC50 in data set [1] and in data set [3] were 12 µM and 0.117 µM, respectively.
The matching figures for `C[C@@H]1CN(c2sc(C(F)(F)F)nc2-c2cnc(C(F)(F)F)nc2)CCN1C(=O)Cn1cnc(CO)n1`: greater than 60 µM and 0.51 µM.
For `CC(C)c1ncn(CC(=O)N2CCN(c3sc(C(F)(F)F)nc3-c3cnc(C(F)(F)F)nc3)C[C@@H]2CO)n1`, the results for the IC50 in data set [1] and in [3] were 17 µM and 0.161 µM, respectively. Also, the microsomal CLint at 1 µM in [2] turned out to be 27 µL/min/mg.
Consider `C[C@@H]1CN(c2sc(C(F)(F)F)nc2-c2cnc(C(F)(F)F)nc2)CCN1C(=O)Cn1cnc(C(N)=O)n1`, for which the IC50 is greater than 60 µM in data set [1] and 2.15 µM in data set [3].
With `CC(C)c1ncn(CC(=O)N2CCN(c3sc(C(F)(F)F)nc3-c3cnc(C(F)(F)F)nc3)C[C@@H]2CCO)n1`, the results for the microsomal CLint at 1 µM in data set [7], in [2] and in data set [8] were 1.9 µL/min/mg, 22 µL/min/mg and 0.28 µL/min/mg, respectively. In addition, the IC50 in data set [1] was determined as 19 µM; in data set [3], 0.165 µM.
`CC(O)c1ncn(CC(=O)N2CCN(c3sc(C(F)(F)F)nc3-c3cnc(C(F)(F)F)nc3)C[C@H]2C)n1` (stereo not given in full): the IC50 is greater than 60 µM in [1] and 0.356 µM in data set [3].
Regarding `CCc1nc(C)n(CC(=O)N2CCN(c3sc(C(F)(F)F)nc3-c3cnc(C(F)(F)F)nc3)C[C@H]2C)n1`, the IC50 was found to be 8.7 µM in data set [1] and 0.483 µM in data set [3].
For `CCc1ncn(CC(=O)N2CCN(c3sc(C(F)(F)F)nc3-c3cnc(C(F)(F)F)nc3)C[C@@H]2CO)n1`, the microsomal CLint at 1 µM was 0.27 µL/min/mg in data set [7], less than 10 µL/min/mg in data set [2] and 0.13 µL/min/mg in data set [8]. In addition, the IC50 in data set [1] was greater than 60 µM; in data set [3], 0.082 µM.
As to `CCc1ncn(CC(=O)N2CCN(c3sc(C(F)(F)F)nc3-c3cnc(C(F)(F)F)nc3)C[C@H]2CO)n1`, in [9], the logD turned out to be 2.6. Further, the IC50 is 52 µM in [1] and 0.208 µM in data set [3]. For the same compound, the microsomal CLint at 1 µM in data set [2] was less than 10 µL/min/mg.
Take `C[C@@H]1CN(c2sc(C(F)(F)F)nc2-c2cnc(C(F)(F)F)nc2)CCN1C(=O)Cn1cnc(C(C)(C)C)n1`: the IC50 in data set [1] came to 7.5 µM; in [3] it was 0.24 µM.
Regarding `CCc1ccn(CC(=O)N2CCN(c3sc(C(F)(F)F)nc3-c3cnc(C(F)(F)F)nc3)C[C@H]2CO)n1`, the IC50 was 8.6 µM in [1] and 0.0337 µM in data set [3]. Further, the microsomal CLint at 1 µM in data set [2] is 81 µL/min/mg.
With `Cc1ncn(CC(=O)N2CCN(c3sc(C(F)(F)F)nc3-c3cnc(C(F)(F)F)nc3)C[C@@H]2CCO)n1`, the IC50 is greater than 60 µM in [1] and 0.643 µM in [3]. In addition, the microsomal CLint at 1 µM in [2] is less than 10 µL/min/mg.
The matching figures for `CCc1ccn(CC(=O)N2CCN(c3sc(C(F)(F)F)nc3-c3cnc(C(F)(F)F)nc3)C[C@H]2CCO)n1`: 2.9 µM, 0.0249 µM and 112 µL/min/mg.
In the case of `Cc1ncn(CC(=O)N2CCN(c3sc(C(F)(F)F)nc3-c3cnc(C(F)(F)F)nc3)C[C@H]2C)n1`, in [9], the logD worked out at 2.7. In addition, the figures for the IC50 in [1] and in data set [3] were 17 µM and 0.144 µM, respectively.
`C[C@@H]1CN(c2sc(C(F)(F)F)nc2-c2cnc(C(F)(F)F)nc2)CCN1C(=O)Cn1cnc(C#N)n1`: the figures for the IC50 in data set [1] and in [3] were 2.6 µM and 1.32 µM, respectively.
For the compound `Cc1ncnn1CC(=O)N1CCN(c2sc(C(F)(F)F)nc2-c2cnc(C(F)(F)F)nc2)C[C@H]1C`, the IC50 in data set [1] came to 16 µM; in data set [3], 0.477 µM.
`Cc1ccn(CC(=O)N2CCN(c3sc(C(F)(F)F)nc3-c3cnc(C(F)(F)F)nc3)C[C@H]2C)n1` returned a logD in data set [9] of 3.4. Further, the results for the IC50 in data set [1] and in data set [3] were 5.1 µM and 0.0564 µM, respectively.
Take `Cc1ccn(CC(=O)N2CCN(c3sc(C(F)(F)F)nc3-c3cnc(C(F)(F)F)nc3)C[C@@H]2CCO)n1`: the microsomal CLint at 1 µM came to 0.56 µL/min/mg in [7], 23 µL/min/mg in [2] and 0.37 µL/min/mg in data set [8]. For the same compound, the half-inhibitory concentration (IC50) in data set [1] was 12 µM; in data set [3], 0.143 µM.
As to `CCc1nc(C)nn1CC(=O)N1CCN(c2sc(C(F)(F)F)nc2-c2cnc(C(F)(F)F)nc2)C[C@H]1C`, the IC50 in data set [1] was 12 µM; in [3], 0.68 µM.
On to `Cc1ccn(CC(=O)N2CCN(c3sc(C(F)(F)F)nc3-c3cnc(C(F)(F)F)nc3)C[C@H]2CO)n1`, for which the microsomal CLint at 1 µM in data set [7] was 0.72 µL/min/mg; in data set [2] it was less than 10 µL/min/mg; in data set [8], 0.41 µL/min/mg. Besides, the IC50 in data set [1] is 13 µM; in data set [3], 0.0532 µM.

By IC50 is commonly meant the concentration that gives 50% inhibition. By CL/F is commonly meant clearance divided by bioavailability, as obtained after extravascular dosing. As a reminder, the bioavailability is the share of a dose that reaches the circulation, judged against a reference dose that is usually intravenous. Read a low bioavailability as little systemic uptake. As a reminder, the logD is the decadic logarithm of the distribution of all forms, ionised or not, between an organic phase and buffer at a given pH. A lower logD goes with a more hydrophilic compound.
